PubChem BioAssay AID248 (DTP/NCI, 2004)
Values joined by “and” are separate entries in the source; they are usually repeats but may differ in a detail not shown here. Equal entries are not always repeated. Toxic doses and inconclusive results are not listed. Rule as the data show it: active = T/C of 150% or more; inactive = T/C below 125%.

Test system: L1210 leukemia ip in BDF1 mice, survival T/C
Test: NCI In Vivo Anticancer Drug Screen. Data for tumor model L1210 Leukemia (intraperitoneal) in B6D2F1 (BDF1) mice
Conditions: higher = longer survival
Summary of the method: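 Value reflects the ratio of survival in compound-treated mice to survival in vehicle-treated controls, with both groups carrying the same transplanted tumor.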

[1] = endpoint: mean survival time, dose: 200.0 mg/kg/injection, schedule: Q01DX001 (ip), vehicle: carboxymethylcellulose (CMC)
[2] = endpoint: mean survival time, dose: 400.0 mg/kg/injection, schedule: Q01DX001 (ip), vehicle: carboxymethylcellulose (CMC)
[3] = endpoint: mean survival time, dose: 100.0 mg/kg/injection, schedule: Q04DX003 (ip), vehicle: Klucel (hydroxypropylcellulose) (HPC)
[4] = endpoint: mean survival time, dose: 200.0 mg/kg/injection, schedule: Q04DX003 (ip), vehicle: Klucel (hydroxypropylcellulose) (HPC)
[5] = endpoint: mean survival time, dose: 400.0 mg/kg/injection, schedule: Q04DX003 (ip), vehicle: Klucel (hydroxypropylcellulose) (HPC)
[6] = endpoint: mean survival time, dose: 100.0 mg/kg/injection, schedule: Q04DX002 (ip), vehicle: saline
[7] = endpoint: mean survival time, dose: 200.0 mg/kg/injection, schedule: Q04DX002 (ip), vehicle: saline
[8] = endpoint: mean survival time, dose: 400.0 mg/kg/injection, schedule: Q04DX002 (ip), vehicle: saline
[9] = endpoint: mean survival time, dose: 100.0 mg/kg/injection, schedule: Q01DX009 (ip), vehicle: Klucel (hydroxypropylcellulose) (HPC)
[10] = endpoint: mean survival time, dose: 200.0 mg/kg/injection, schedule: Q01DX009 (ip), vehicle: Klucel (hydroxypropylcellulose) (HPC)
[11] = endpoint: mean survival time, dose: 400.0 mg/kg/injection, schedule: Q01DX009 (ip), vehicle: Klucel (hydroxypropylcellulose) (HPC)
[12] = endpoint: mean survival time, dose: 10.0 mg/kg/injection, schedule: Q01DX001 (ip), vehicle: saline
[13] = endpoint: mean survival time, dose: 100.0 mg/kg/injection, schedule: Q04DX003 (ip), vehicle: saline with Tween-80
[14] = endpoint: mean survival time, dose: 200.0 mg/kg/injection, schedule: Q04DX003 (ip), vehicle: saline with Tween-80
[15] = endpoint: mean survival time, dose: 400.0 mg/kg/injection, schedule: Q04DX003 (ip), vehicle: saline with Tween-80
[16] = endpoint: mean survival time, dose: 50.0 mg/kg/injection, schedule: Q01DX009 (ip), vehicle: Klucel (hydroxypropylcellulose) (HPC)
[17] = endpoint: mean survival time, dose: 12.5 mg/kg/injection, schedule: Q01DX009 (ip), vehicle: Klucel (hydroxypropylcellulose) (HPC)
[18] = endpoint: mean survival time, dose: 25.0 mg/kg/injection, schedule: Q01DX009 (ip), vehicle: Klucel (hydroxypropylcellulose) (HPC)

Measured: T/C

Clc1ccc(C2ON2C2CCCCC2)cc1 (stereo not drawn)
inactive: endpoint: mean survival time, dose: 100.0 mg/kg/injection, schedule: Q01DX001 (ip), vehicle: carboxymethylcellulose (CMC) 95 % of control | [1] 101 % of control | [2] 101 % of control

COC(=O)Cc1cn[nH]c1C(=O)OC
inactive: endpoint: mean survival time, dose: 100.0 mg/kg/injection, schedule: Q01DX009 (ip), vehicle: saline 97 % of control | [3] 93 % of control | endpoint: mean survival time, dose: 200.0 mg/kg/injection, schedule: Q01DX009 (ip), vehicle: saline 94 % of control | [4] 97 % of control | endpoint: mean survival time, dose: 400.0 mg/kg/injection, schedule: Q01DX009 (ip), vehicle: saline 95 % of control | [5] 97 % of control

CC(=O)NC(CCc1ccc(Cl)c(Cl)c1)c1cccc(O)c(=O)c1 (stereo not drawn)
inactive: endpoint: median survival time, dose: 50.0 mg/kg/injection, schedule: Q01DX009 (ip), vehicle: Klucel (hydroxypropylcellulose) (HPC) 118 % of control | endpoint: median survival time, dose: 100.0 mg/kg/injection, schedule: Q01DX009 (ip), vehicle: Klucel (hydroxypropylcellulose) (HPC) 118 % of control

CCOC(=O)/C=C\SCC(=O)OCC
inactive: [6] 104 % of control | [7] 104 % of control | [8] 93 % of control

COc1ccc(C2CCc3cc4c(cc3/C2=N/OC(C)=O)OCO4)cc1OC (stereo not drawn)
inactive: [9] 105 % of control | [3] 102 % of control | [10] 97 % of control | [4] 101 % of control | [11] 92 % of control | [5] 101 % of control

CCCOC(=O)CSC#N
inactive: endpoint: mean survival time, dose: 5.0 mg/kg/injection, schedule: Q01DX001 (ip), vehicle: saline 106 % of control | [12] 100 % of control

O=c1[nH]c2ccccc2c2ccccc12
inactive: [13] 92 % of control | [14] 97 % of control | [15] 95 % of control

CCNC(=S)N/N=C(/c1ccc(OC)cc1)P(=O)(OCC)OCC
inactive: [3] 104 % of control | [4] 100 % of control | [5] 89 % of control

O=[N+]([O-])c1ccc(N2CCN(c3cccc(C(F)(F)F)c3)CC2)c([N+](=O)[O-])c1
inactive: [13] 105 % of control | [14] 102 % of control | [15] 100 % of control

O=c1nc(NCCc2cnc[nH]2)nc(NCCc2cnc[nH]2)[nH]1
inactive: [16] 100 % of control | [9] 100 % of control | [10] 92 % of control

NC(N)=NCCN=C(N)N
inactive: endpoint: mean survival time, dose: 15.0 mg/kg/injection, schedule: Q01DX Z (oral), vehicle: saline 97 % of control | endpoint: mean survival time, dose: 30.0 mg/kg/injection, schedule: Q01DX Z (oral), vehicle: saline 103 % of control | endpoint: mean survival time, dose: 60.0 mg/kg/injection, schedule: Q01DX Z (oral), vehicle: saline 101 % of control | endpoint: mean survival time, dose: 120.0 mg/kg/injection, schedule: Q01DX Z (oral), vehicle: saline 95 % of control

O=C(Nc1ccccc1O)c1ccccc1
inactive: [3] 109 % of control | [4] 102 % of control | [5] 101 % of control

CCOC(=O)c1cnn(-c2ccccc2)c1C
inactive: [9] 94 % of control | [3] 112 % of control | [10] 94 % of control | [4] 95 % of control | [11] 102 % of control | [5] 88 % of control

Cc1c2cnccc2c(C)c2c1c1ccccc1n2CCCN1C(=O)c2ccccc2C1=O
inactive: endpoint: mean survival time, dose: 50.0 mg/kg/injection, schedule: Q04DX003 (ip), vehicle: saline with Tween-80 100 % of control | endpoint: mean survival time, dose: 100.0 mg/kg/injection, schedule: Q01DX009 (ip), vehicle: saline with Tween-80 104 % of control | [13] 97 % of control | endpoint: mean survival time, dose: 150.0 mg/kg/injection, schedule: Q01DX001 (oral), vehicle: saline with Tween-80 105 % of control | endpoint: mean survival time, dose: 200.0 mg/kg/injection, schedule: Q01DX009 (ip), vehicle: saline with Tween-80 102 % of control and 107 % of control | [14] 101 % of control | endpoint: mean survival time, dose: 300.0 mg/kg/injection, schedule: Q01DX001 (oral), vehicle: saline with Tween-80 112 % of control | endpoint: mean survival time, dose: 400.0 mg/kg/injection, schedule: Q01DX009 (ip), vehicle: saline with Tween-80 111 % of control and 120 % of control | [15] 117 % of control | endpoint: mean survival time, dose: 600.0 mg/kg/injection, schedule: Q01DX001 (oral), vehicle: saline with Tween-80 112 % of control | endpoint: mean survival time, dose: 600.0 mg/kg/injection, schedule: Q01DX009 (ip), vehicle: saline with Tween-80 121 % of control | endpoint: mean survival time, dose: 1200.0 mg/kg/injection, schedule: Q01DX001 (oral), vehicle: saline with Tween-80 121 % of control

CCCCCCCCCCCC1=C(O)C(=O)C(CC2=C(O)C(=O)C(CCCCCCCCCCC)=C(O)C2=O)=C(O)C1=O
inactive: [1] 100 % of control | [2] 103 % of control

CC1(C)CC(=O)C=C(OS(=O)(=O)C(F)(F)F)C1
inactive: endpoint: mean survival time, dose: 12.5 mg/kg/injection, schedule: Q01DX009 (ip), vehicle: DMSO 110 % of control | endpoint: mean survival time, dose: 25.0 mg/kg/injection, schedule: Q01DX009 (ip), vehicle: DMSO 101 % of control | endpoint: mean survival time, dose: 50.0 mg/kg/injection, schedule: Q01DX009 (ip), vehicle: DMSO 103 % of control | endpoint: mean survival time, dose: 100.0 mg/kg/injection, schedule: Q01DX009 (ip), vehicle: DMSO 94 % of control

BrC1CCCCN1Cc1cc2ccccc2cc1CN1CCCCC1Br (stereo not drawn)
inactive: endpoint: mean survival time, dose: 9.38 mg/kg/injection, schedule: Q01DX001 (ip), vehicle: other 100 % of control | endpoint: mean survival time, dose: 18.75 mg/kg/injection, schedule: Q01DX001 (ip), vehicle: other 102 % of control

O=C1CCCC(=O)C1C(C[N+](=O)[O-])c1ccccc1 (stereo not drawn)
inactive: [17] 97 % of control | [18] 93 % of control | [16] 90 % of control | [9] 88 % of control | [3] 98 % of control

CNCCC=C1c2ccccc2CCc2ccccc21
inactive: endpoint: mean survival time, dose: 3.12 mg/kg/injection, schedule: Q01DX009 (ip), vehicle: saline 101 % of control | endpoint: mean survival time, dose: 6.25 mg/kg/injection, schedule: Q01DX009 (ip), vehicle: saline 101 % of control | endpoint: mean survival time, dose: 12.5 mg/kg/injection, schedule: Q01DX009 (ip), vehicle: saline 106 % of control | endpoint: mean survival time, dose: 25.0 mg/kg/injection, schedule: Q01DX009 (ip), vehicle: saline 106 % of control | endpoint: mean survival time, dose: 25.0 mg/kg/injection, schedule: Q04DX003 (ip), vehicle: saline 96 % of control | endpoint: mean survival time, dose: 50.0 mg/kg/injection, schedule: Q01DX009 (ip), vehicle: saline 117 % of control | endpoint: mean survival time, dose: 50.0 mg/kg/injection, schedule: Q04DX003 (ip), vehicle: saline 96 % of control

CCNCCCNc1ccnc2cc(Cl)ccc12
inactive: [12] 96 % of control | endpoint: mean survival time, dose: 20.0 mg/kg/injection, schedule: Q01DX001 (ip), vehicle: saline 98 % of control | endpoint: mean survival time, dose: 40.0 mg/kg/injection, schedule: Q01DX001 (ip), vehicle: saline 93 % of control

COc1ccc(NC(=O)Oc2ccc(Br)cc2Br)c(OC)c1
inactive: [9] 108 % of control | [10] 113 % of control

O=C(C[n+]1ccccc1/C=N/O)c1ccccc1
inactive: endpoint: mean survival time, dose: 12.5 mg/kg/injection, schedule: Q01DX009 (ip), vehicle: saline with Tween-80 101 % of control | endpoint: mean survival time, dose: 25.0 mg/kg/injection, schedule: Q01DX009 (ip), vehicle: saline with Tween-80 99 % of control | endpoint: mean survival time, dose: 50.0 mg/kg/injection, schedule: Q01DX009 (ip), vehicle: saline with Tween-80 101 % of control | endpoint: mean survival time, dose: 75.0 mg/kg/injection, schedule: Q01DX001 (ip), vehicle: other 97 % of control

Cc1cc(C)c(-n2c(C)nc3ccccc3c2=O)c([N+](=O)[O-])c1
inactive: [17] 96 % of control | [18] 104 % of control | [16] 89 % of control | [9] 109 % of control

O=C(NCCCCCCNC(=O)N(Cc1ccccc1)Cc1ccccc1)N(Cc1ccccc1)Cc1ccccc1
inactive: [6] 105 % of control | [7] 97 % of control | [8] 108 % of control

[CH3][Pb]([CH3])([CH3])[O]P(=O)(O)c1ccccc1
inactive: endpoint: mean survival time, dose: 3.12 mg/kg/injection, schedule: Q04DX002 (ip), vehicle: saline 98 % of control | endpoint: mean survival time, dose: 6.25 mg/kg/injection, schedule: Q04DX002 (ip), vehicle: saline 103 % of control | endpoint: mean survival time, dose: 12.5 mg/kg/injection, schedule: Q04DX002 (ip), vehicle: saline 98 % of control and 101 % of control
